According to patent US11319347B2, “Peptide compound and method for producing same, composition for screening use, and method for selecting peptide compound” (FUJIFILM Corporation, priority 2017, dated 2022):
Read-outs that look alike come from different tables or passages of the source. Starred links: 1 amine or outer side, 2 acyl side, 3 side chain; linkers in the order of their positions; H or OH if unused. Positions of bridges follow the written chain, without caps; N, C: chain ends. Non-standard residues stand in square brackets, D forms with d. Residues, ends and D or L forms follow the SMILES beside them. ξ: configuration not given here. 2Pal(6-thiazolin-2-yl-4R-CO) = O=C([C@H](Cc1cccc(C2=N[C@H](C(=O)[*:3])CS2)n1)N[*:1])[*:2]; Ile(3ξ) = CCC(C)[C@H](N)C(=O)O

Molecular target: Mcl-1
Experiment: Binding of synthetic peptide to target protein by surface plasmon resonance (SPR, Biacore T200)
Protocol: Preparation of Target Protein
A plasmid construct was prepared in which a gene containing the amino acid 1-172 portion of MCL-1 was introduced into plasmid pET28a, and a His6 tag, MBP, and a TEV protease recognition sequence were attached to the N terminal side thereof. This plasmid was transformed into E. coli strain BL21 (DE3) RIPL which was then cultured at 30° C. In a case where the O.D. reached 0.8, IPTG […] was added to induce large-scale expression, followed by culturing at 16° C. overnight. The recovered bacterial cells were suspended in Lysis Buffer A (25 mmol/L Tris (pH 7.5), 150 mmol/L NaCl), and then disrupted by sonication. This was followed by centrifugation at 15 krpm for 15 minutes. The supernatant after centrifugation was purified using a Ni-NTA resin (manufactured by QIAGEN GmbH). The sample adsorbed to the Ni-NTA resin was washed with Lysis Buffer A containing 15 mmol/L imidazole and then eluted with Lysis Buffer A containing 200 mmol/L imidazole. The sample was stored at −80° C. after substitution with Lysis buffer by dialysis.
Evaluation of Binding of Synthetic Peptide to Target Protein Using Surface Plasmon Resonance (SPR)
An SPR experiment for analyzing the interaction of a synthetic peptide with Mel-1 was carried out at 25° C. using Biacore T200 (manufactured by GE Healthcare Inc.). The synthetic peptide was added to the immobilized protein, and the interaction therebetween was evaluated.
A buffer obtained by adding dimethylformamide (DMF) or dimethylsulfoxide (DMSO) to a final concentration of 1 vol % to HBS-EP+ (manufactured by GE Healthcare Inc.) was used as a running buffer. Mcl-1 was immobilized on a Biacore Sensor Chip Series S Sensor Chip CM5 (manufactured by GE Healthcare Inc.) using an Amine Coupling Kit (manufactured by GE Healthcare Inc.). In order to measure the dissociation constant (KD), each synthetic peptide was added at multiple concentrations to obtain a sensorgram of binding to immobilized Mel-1.
The analysis of the obtained sensorgram was carried out using T200 evaluation software (manufactured by GE Healthcare Inc.). Solvent correction to DMF or DMSO was carried out, and then the KD was determined by equilibrium value analysis using a sensorgram obtained by subtracting the sensorgram to a flow cell in which Mcl-1 is not immobilized.
One having a KD of less than 50 μmol/L is denoted as A, and one having a KD of 50 μmol/L or more is denoted as B.
Binding of the synthetic peptide to the target protein was evaluated in the same manner as described above.

[1] = 25° C., immobilized Mcl-1, Table 51, read-out: Binding evaluation result (KD)
[2] = immobilized Mcl-1, Table 53 (peptides from mRNA display), read-out: Binding evaluation result (KD)

Kd [1]	Kd [2]	Structure (SMILES)
≥ 50 µM		CC(C)C[C@@H]1NC(=O)[C@H](Cc2ccccc2)NC(=O)[C@H](C)NC(=O)[C@@H]2CCCN2C(=O)[C@H](Cc2c[nH]c3ccccc23)NC(=O)[C@H](CC(C)C)NC(=O)[C@@H](CS)NC(=O)[C@H](C)NC(=O)C(Cc2c[nH]c3ccccc23)NC(=O)[C@H](CO)NC(=O)C(CCCNC(=N)N)NC(=O)[C@@H]2CSC(=N2)c2cccc(n2)C[C@H](C(N)=O)NC(=O)[C@H](Cc2ccc(O)cc2)NC(=O)[C@H](Cc2c[nH]c3ccccc23)NC1=O (stereo partly drawn) [Cyclic peptide a-5-1]
≥ 50 µM		CC(C)C[C@@H]1NC(=O)[C@H](C(C)C)NC(=O)[C@H](CO)NC(=O)[C@H](Cc2ccccc2)NC(=O)[C@H](C)NC(=O)[C@H](Cc2c[nH]c3ccccc23)NC(=O)[C@@H]2CSC(=N2)c2cccc(n2)C[C@H](C(N)=O)NC(=O)[C@H](Cc2c[nH]c3ccccc23)NC(=O)[C@H](C(C)C)NC(=O)[C@@H]2CCCN2C(=O)[C@H](Cc2ccccc2)NC(=O)[C@H](Cc2c[nH]c3ccccc23)NC(=O)[C@@H]2CCCN2C(=O)[C@H](Cc2c[nH]c3ccccc23)NC1=O [Cyclic peptide a-5-2]
≥ 50 µM		CC(C)C[C@@H]1NC(=O)[C@H](C)NC(=O)[C@@H](Cc2ccccc2)NC(=O)[C@@H]2CSC(=N2)c2cccc(n2)C[C@@H](C(N)=O)NC(=O)[C@H](Cc2ccccc2)NC(=O)[C@H](C)NC(=O)[C@H](CC(C)C)NC(=O)[C@@H]2CCCN2C(=O)[C@@H](CC(C)C)NC(=O)[C@@H](Cc2ccccc2)NC(=O)[C@H](CCC(N)=O)NC(=O)[C@@H]2CCCN2C(=O)[C@@H](Cc2c[nH]c3ccccc23)NC(=O)[C@H](CC(C)C)NC1=O [Cyclic peptide a-5-3] ([dF]ALL[dW]PQ[dF][dL]PLAF[2Pal(6-thiazolin-2-yl-4R-CO)]-NH2; lactam N-14)
< 50 µM		CC(C)C[C@@H]1NC(=O)[C@H](C(C)C)NC(=O)[C@H](CO)NC(=O)[C@H](Cc2c[nH]c3ccccc23)NC(=O)[C@@H]2CSC(=N2)c2cccc(n2)C[C@@H](C(N)=O)NC(=O)[C@H](CO)NC(=O)[C@H](C(C)C)NC(=O)[C@H](CO)NC(=O)[C@@H]2CCCN2C(=O)[C@H](C(C)C)NC(=O)[C@H](Cc2ccccc2)NC(=O)[C@H](Cc2c[nH]c3ccccc23)NC(=O)[C@@H]2CCCN2C(=O)[C@H](Cc2c[nH]c3ccccc23)NC1=O [Cyclic peptide a-5-4] (WSVLWPWFVPSVS[2Pal(6-thiazolin-2-yl-4R-CO)]-NH2; lactam N-14)
< 50 µM		CC(C)C[C@@H]1NC(=O)CNC(=O)[C@@H]2CCCN2C(=O)[C@H](CCC(=O)O)NC(=O)[C@H](Cc2ccccc2)NC(=O)[C@H](CO)NC(=O)[C@@H]2CSC(=N2)c2cccc(n2)C[C@@H](C(N)=O)NC(=O)[C@H](CC(C)C)NC(=O)[C@H](C(C)C)NC(=O)[C@H](CCCNC(=N)N)NC(=O)[C@H](Cc2ccccc2)NC(=O)[C@H](CC(C)C)NC(=O)[C@H](Cc2c[nH]c3ccccc23)NC(=O)[C@H](Cc2c[nH]c3ccccc23)NC1=O [Cyclic peptide a-5-5] (SFEPGLWWLFRVL[2Pal(6-thiazolin-2-yl-4R-CO)]-NH2; lactam N-14)
≥ 50 µM		CC(C)C[C@@H]1NC(=O)[C@H](Cc2c[nH]c3ccccc23)NC(=O)[C@@H]2CCCN2C(=O)[C@H](Cc2c[nH]c3ccccc23)NC(=O)[C@H](CC(C)C)NC(=O)[C@H](C(C)C)NC(=O)[C@H](CS)NC(=O)[C@H](Cc2c[nH]c3ccccc23)NC(=O)[C@H](CO)NC(=O)[C@@H]2CSC(=N2)c2cccc(n2)C[C@@H](C(N)=O)NC(=O)CNC(=O)[C@H](Cc2c[nH]c3ccccc23)NC(=O)[C@H](Cc2ccccc2)NC(=O)[C@H](C(C)C)NC1=O [Cyclic peptide a-5-6] (SWCVLWPWLVFWG[2Pal(6-thiazolin-2-yl-4R-CO)]-NH2; lactam N-14)
≥ 50 µM		CCC(C)[C@@H]1NC(=O)[C@@H]2CCCN2C(=O)[C@H](Cc2c[nH]c3ccccc23)NC(=O)[C@H](CC(C)C)NC(=O)[C@H](CC(C)C)NC(=O)[C@H](C(C)C)NC(=O)[C@H](Cc2c[nH]c3ccccc23)NC(=O)[C@@H]2CCCN2C(=O)[C@@H]2CSC(=N2)c2cccc(n2)C[C@@H](C(N)=O)NC(=O)[C@H](CC(C)C)NC(=O)[C@H](CO)NC(=O)[C@@H]2CCCN2C(=O)[C@H](C(C)C)NC(=O)[C@H](CC(C)C)NC1=O (stereo partly drawn) [Cyclic peptide a-5-7] (PWVLLWP[Ile(3ξ)]LVPSL[2Pal(6-thiazolin-2-yl-4R-CO)]-NH2; lactam N-14)
≥ 50 µM		CC(C)C[C@@H]1NC(=O)[C@H](C)NC(=O)[C@H](Cc2ccccc2)NC(=O)[C@H](C)NC(=O)[C@@H]2CCCN2C(=O)[C@H](Cc2c[nH]c3ccccc23)NC(=O)[C@H](CC(C)C)NC(=O)[C@H](CS)NC(=O)[C@H](C)NC(=O)[C@H](Cc2c[nH]c3ccccc23)NC(=O)[C@@H]2CSC(=N2)c2cccc(n2)C[C@@H](C(N)=O)NC(=O)[C@H](CC(C)C)NC(=O)[C@H](Cc2c[nH]c3ccccc23)NC(=O)[C@H](CO)NC1=O [Cyclic peptide a-5-8] (WACLWPAFALSWL[2Pal(6-thiazolin-2-yl-4R-CO)]-NH2; lactam N-14)
	< 50 µM	CC(C)C[C@@H]1NC(=O)[C@@H]2CCCN2C(=O)[C@H](Cc2c[nH]c3ccccc23)NC(=O)[C@H](Cc2ccccc2)NC(=O)[C@H]([C@H](C)O)NC(=O)[C@@H]2CCCN2C(=O)[C@H](CC(=O)O)NC(=O)[C@H](CS)NC(=O)[C@H](Cc2ccc(O)cc2)NC(=O)[C@H](CCC(=O)O)NC(=O)[C@@H]2CSC(=N2)c2cc(cs2)C[C@@H](C(N)=O)NC(=O)[C@H](CCCNC(=N)N)NC(=O)[C@H](CCCNC(=N)N)NC(=O)[C@H](Cc2ccccc2)NC1=O [a-6-1]
	≥ 50 µM	CC(C)C[C@@H]1NC(=O)[C@H](CC(=O)O)NC(=O)[C@H](CCC(N)=O)NC(=O)[C@H](CC(=O)O)NC(=O)[C@H](CCCCN)NC(=O)[C@H](Cc2ccc(O)cc2)NC(=O)[C@H](CC(=O)O)NC(=O)[C@H](Cc2ccc(O)cc2)NC(=O)[C@H](CCC(=O)O)NC(=O)[C@H](Cc2ccccc2)NC(=O)[C@H](C)NC(=O)CNC(=O)[C@H](C)NC(=O)[C@@H]2CSC(=N2)c2cc(cs2)C[C@H](C(N)=O)NC1=O [a-6-2]
	≥ 50 µM	CC[C@H](C)[C@@H]1NC(=O)[C@H](CC(=O)O)NC(=O)[C@@H]2CSC(=N2)c2cc(cs2)CC(C(N)=O)NC(=O)[C@H](CCCNC(=N)N)NC(=O)[C@H](CC(=O)O)NC(=O)CNC(=O)[C@H](CC(=O)O)NC(=O)[C@H](CCCCN)NC(=O)[C@H](Cc2ccc(O)cc2)NC(=O)[C@H](CC(=O)O)NC(=O)[C@H](Cc2ccc(O)cc2)NC(=O)[C@H](C(C)C)NC(=O)CNC(=O)[C@H](C(C)C)NC1=O (stereo partly drawn) [a-6-3]
	< 50 µM	CC[C@H](C)[C@@H]1NC(=O)[C@H](CO)NC(=O)[C@H](CCCNC(=N)N)NC(=O)[C@H](CC(C)C)NC(=O)[C@H]([C@@H](C)O)NC(=O)[C@H](CO)NC(=O)[C@H](C)NC(=O)[C@H]([C@@H](C)O)NC(=O)[C@H](CCC(=O)O)NC(=O)[C@H](CCC(=O)O)NC(=O)[C@@H]2CSC(=N2)c2cc(cs2)C[C@@H](C(N)=O)NC(=O)[C@H](CO)NC(=O)[C@H](CC(=O)O)NC(=O)CNC1=O [a-6-4]
	< 50 µM	CC[C@H](C)[C@@H]1NC(=O)[C@H](CO)NC(=O)[C@H](CO)NC(=O)[C@H](CC(C)C)NC(=O)[C@H]([C@@H](C)O)NC(=O)[C@H]([C@@H](C)O)NC(=O)[C@@H]2CSC(=N2)c2cc(cs2)C[C@@H](C(N)=O)NC(=O)[C@H](CCCNC(=N)N)NC(=O)[C@H](CCCNC(=N)N)NC(=O)[C@H](CC(=O)O)NC(=O)[C@H](C(C)C)NC(=O)[C@H](CCC(N)=O)NC(=O)[C@H](CC(=O)O)NC(=O)CNC1=O [a-6-5]
	< 50 µM	CC[C@H](C)[C@@H]1NC(=O)[C@H](CCC(N)=O)NC(=O)[C@H](CCCNC(=N)N)NC(=O)[C@H](CC(C)C)NC(=O)CNC(=O)[C@H](CC(=O)O)NC(=O)[C@H](C(C)C)NC(=O)[C@H](C(C)C)NC(=O)[C@H](CC(N)=O)NC(=O)[C@@H]2CCCN2C(=O)[C@@H]2CSC(=N2)c2cc(cs2)CC(C(N)=O)NC(=O)[C@H]([C@@H](C)O)NC(=O)[C@H](CC(=O)O)NC(=O)CNC1=O (stereo partly drawn) [a-6-6]
	< 50 µM	CC(C)C[C@H](NC(=O)[C@H](CC(=O)O)NC(=O)[C@H](CCCCN)NC(=O)[C@@H](NC(=O)[C@H](C)NC(=O)[C@H](C)NC(=O)[C@H]1Cc2csc(c2)C2=N[C@@H](CS2)C(=O)N[C@@H](CC(=O)O)C(=O)N[C@@H](CO)C(=O)N[C@@H](Cc2ccc(O)cc2)C(=O)N1)C(C)C)C(=O)N[C@@H](CCC(=O)O)C(=O)N[C@@H](CC(N)=O)C(=O)N[C@@H](C)C(=O)N[C@@H](Cc1csc(C#N)c1)C(N)=O [a-6-7]
